The target of assay [1] is Cyclin-dependent kinase 2/G1/S-specific cyclin-E1 (Homo sapiens, UniProt P24941). In words: Biochemical CDK Inhibition Assay. On the procedure:
(§1) nhibitory effects of the compounds of the disclosure were measured in biochemical assays that measure the enzymatic phosphorylation activity of CDK enzyme in complex of Cyclin proteins phosphorylates 7.5 micromolar fluorescently labelled peptide substrate, 5-FAM-QSPKKG-CONH2, (FL-Peptide 18, Perkin Elmer, 760362) in the presence of adenosine-5′-triphosphate (ATP) and varying concentrations of the test compound in 100 mM 2-[4-(2-hydroxyethyl)piperazin-1-yl]ethanesulfonic acid (HEPES), pH 7.5, 10 mM MgCl2, 0.015% Brij-35, 1 mM dithiothreitol (DTT), 1.0% dimethylsulfoxide (DMSO). Assays were performed at 1.0 mM ATP or at ATP Km of the CDK enzymes in complex with Cyclin proteins. Reactions proceeded until between 10% to 20% total peptides were phosphorylated at room temperature (25° C.) and were terminated with 35 mM 2,2′,2″,2′″-(ethane-1,2-diyldinitrilo)tetraacetic acid (EDTA). Product was detected using the Caliper mobility shift detection method where the phosphorylated peptide (product) and substrate were electrophoretically separated and measured. Percent activity was plotted against log concentration of compound and points to generate an apparent IC50. The following CDK enzymes in complex with different cyclin proteins were used in these assays:CDK1/Cyclin B1, GST-tag (BPS, 40454), 1.5 nM used in the assayCDK2/Cyclin E (Eurofins, 14-475), 1.25 nM used in the assays

Assay [2] deals with Cyclin-dependent kinase/G2/mitotic-specific cyclin- 1 (Homo sapiens, UniProt P06493). The assay is described as follows: Biochemical CDK Inhibition Assay. Here is the method: as §1
Cyclin-dependent kinase/G2/mitotic-specific cyclin- 1, sequence (P06493 whole entry): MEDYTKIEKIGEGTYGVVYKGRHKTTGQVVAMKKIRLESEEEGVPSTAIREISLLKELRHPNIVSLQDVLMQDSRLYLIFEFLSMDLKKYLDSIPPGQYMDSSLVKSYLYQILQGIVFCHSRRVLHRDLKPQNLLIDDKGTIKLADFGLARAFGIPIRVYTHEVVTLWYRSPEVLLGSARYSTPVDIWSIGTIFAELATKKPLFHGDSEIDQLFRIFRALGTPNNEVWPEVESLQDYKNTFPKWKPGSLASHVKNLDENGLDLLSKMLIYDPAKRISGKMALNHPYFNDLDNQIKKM
Cyclin-dependent kinase/G2/mitotic-specific cyclin- 1, sequence (P14635 whole entry, further chain): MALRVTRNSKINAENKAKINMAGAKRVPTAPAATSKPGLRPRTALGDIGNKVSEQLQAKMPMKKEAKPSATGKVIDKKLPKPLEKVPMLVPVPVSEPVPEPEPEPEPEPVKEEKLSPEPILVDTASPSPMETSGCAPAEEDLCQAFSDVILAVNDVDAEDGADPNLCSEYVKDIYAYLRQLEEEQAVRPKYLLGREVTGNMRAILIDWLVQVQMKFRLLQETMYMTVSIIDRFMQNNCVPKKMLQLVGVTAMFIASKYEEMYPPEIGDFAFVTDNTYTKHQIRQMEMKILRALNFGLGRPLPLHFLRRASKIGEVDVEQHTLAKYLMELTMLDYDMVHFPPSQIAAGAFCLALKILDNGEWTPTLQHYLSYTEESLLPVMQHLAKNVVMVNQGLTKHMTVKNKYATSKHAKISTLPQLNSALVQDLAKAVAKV

What is called IC50 is the concentration that inhibits the measured activity by half. A higher IC50 goes with weaker potency.

As to `CC1(NC(=O)O[C@@H]2CC[C@H](c3cc(Nc4ccccn4)n[nH]3)C2)CC1` [US20250074895, Compound 13], the IC50 in assay [1] was 15 nM; in assay [2], greater than 500 nM.
For `Cc1cnc(Nc2cc([C@H]3CC[C@@H](OC(=O)NC4(C)CC4)C3)[nH]n2)cn1` [US20250074895, Compound 27], the concentration for half-maximal inhibition (IC50) in assay [1] was less than 10 nM; in assay [2] it was 300 nM.
For the compound `CNc1nc(Nc2cc([C@H]3CC[C@@H](OC(=O)NC4(C)CC4)C3)[nH]n2)cnc1C#N` [US20250074895, Compound 43], the IC50 is less than 10 nM in assay [1] and 300 nM in assay [2].
In the case of `Cc1nc(Nc2cc([C@H]3CC[C@@H](OC(=O)NC4(C)CC4)C3)[nH]n2)cnc1C#N` [US20250074895, Compound 9], the results for the IC50 in assay [1] and in assay [2] were less than 10 nM and less than 100 nM, respectively.
For `CC1(C)CCN1C(=O)O[C@@H]1CC[C@H](c2cc(Nc3cnc(CO)cn3)n[nH]2)C1` [US20250074895, Compound 49], the results for the IC50 in assay [1] and in assay [2] were less than 10 nM and less than 100 nM, respectively.
Consider `CC1(NC(=O)O[C@@H]2CC[C@H](c3cc(Nc4nccnn4)n[nH]3)C2)CC1` [US20250074895, Compound 42], for which the IC50 in assay [1] is 25 nM; in assay [2], greater than 500 nM.
On the same counts, the results for `CC1(NC(=O)O[C@@H]2CC[C@H](c3cc(Nc4ccnc(C#N)n4)n[nH]3)C2)CC1` [US20250074895, Compound 3] are less than 10 nM and less than 100 nM.
On the same counts, the results for `CC1(NC(=O)O[C@@H]2CC[C@H](c3cc(Nc4ccc(C#N)cn4)n[nH]3)C2)CC1` [US20250074895, Compound 12] are less than 10 nM and 300 nM.
In the case of `Cc1cc(C#N)cc(Nc2cc([C@H]3CC[C@@H](OC(=O)NC4(C)CC4)C3)[nH]n2)n1` [US20250074895, Compound 15], the half-maximal inhibitory concentration (IC50) in assay [1] was less than 10 nM; in assay [2], less than 100 nM.
On the same counts, the results for `CC1(NC(=O)O[C@@H]2CC[C@H](c3cc(Nc4ccnc(CO)n4)n[nH]3)C2)CC1` [US20250074895, Compound 46] are less than 10 nM and 300 nM.
Take `C[C@@H](O)c1cnc(Nc2cc([C@H]3CC[C@@H](OC(=O)N4CCC4(C)C)C3)[nH]n2)cn1` [US20250074895, Compound 51]: the IC50 was less than 10 nM in assay [1] and less than 100 nM in assay [2].
Turning to `COc1cnc(Nc2cc([C@H]3CC[C@@H](OC(=O)NC4(C)CC4)C3)[nH]n2)c(C)n1` [US20250074895, Compound 45], the IC50 in assay [1] is less than 10 nM; in assay [2] it was greater than 500 nM.
In the same order, the values of `C[C@@H](O)c1cnc(Nc2cc([C@H]3CC[C@@H](OC(=O)NC4(C)CC4)C3)[nH]n2)cn1` [US20250074895, Compound 22] are less than 10 nM and 300 nM.
Regarding `CNc1nncc(Nc2cc([C@H]3CC[C@@H](OC(=O)NC4(C)CC4)C3)[nH]n2)n1` [US20250074895, Compound 23], the IC50 in assay [1] was less than 10 nM; in assay [2], less than 100 nM.
For `CN(C)c1nncc(Nc2cc([C@H]3CC[C@@H](OC(=O)NC4(C)CC4)C3)[nH]n2)n1` [US20250074895, Compound 44], the IC50 in assay [1] was less than 10 nM; in assay [2], less than 100 nM.
On the same counts, the results for `Cc1nccc(Nc2cc([C@H]3CC[C@@H](OC(=O)NC4(C)CC4)C3)[nH]n2)n1` [US20250074895, Compound 34] are less than 10 nM and 300 nM.
In the same order, the values of `CC1(NC(=O)O[C@@H]2CC[C@H](c3cc(Nc4cncc(C5CC5)n4)n[nH]3)C2)CC1` [US20250074895, Compound 29] are less than 10 nM and less than 100 nM.
On the same counts, the results for `CC1(NC(=O)O[C@@H]2CC[C@H](c3cc(Nc4ccc(C#N)nn4)n[nH]3)C2)CC1` [US20250074895, Compound 18] are 15 nM and greater than 500 nM.
Regarding `CC1(NC(=O)O[C@@H]2CC[C@H](c3cc(Nc4cnc(CO)cn4)n[nH]3)C2)CC1` [US20250074895, Compound 55], the IC50 is less than 10 nM in assay [1] and less than 100 nM in assay [2].
`CC1(NC(=O)O[C@@H]2CC[C@H](c3cc(Nc4cnc(C(C)(C)O)cn4)n[nH]3)C2)CC1` [US20250074895, Compound 17]: the IC50 in assay [1] was less than 10 nM; in assay [2], 300 nM.
On the same counts, the results for `COc1nccc(Nc2cc([C@H]3CC[C@@H](OC(=O)NC4(C)CC4)C3)[nH]n2)n1` [US20250074895, Compound 25] are less than 10 nM and 300 nM.
As for `CC1(NC(=O)O[C@@H]2CC[C@H](c3cc(Nc4cncc(C#N)n4)n[nH]3)C2)CC1` [US20250074895, Compound 11], the IC50 in assay [1] is less than 10 nM; in assay [2], less than 100 nM.
On the same counts, the results for `Cc1cc(C#N)cnc1Nc1cc([C@H]2CC[C@@H](OC(=O)NC3(C)CC3)C2)[nH]n1` [US20250074895, Compound 20] are less than 10 nM and greater than 500 nM.
On the same counts, the results for `CC1(NC(=O)O[C@@H]2CC[C@H](c3cc(Nc4cnc(C#N)cn4)n[nH]3)C2)CC1` [US20250074895, Compound 1] are less than 10 nM and 300 nM.
As to `Cc1c(C#N)ccnc1Nc1cc([C@H]2CC[C@@H](OC(=O)NC3(C)CC3)C2)[nH]n1` [US20250074895, Compound 14], the IC50 was less than 10 nM in assay [1] and greater than 500 nM in assay [2].
On the same counts, the results for `Cc1cnc(C#N)nc1Nc1cc([C@H]2CC[C@@H](OC(=O)NC3(C)CC3)C2)[nH]n1` [US20250074895, Compound 19] are less than 10 nM and 300 nM.
On the same counts, the results for `CC1(NC(=O)O[C@@H]2CC[C@H](c3cc(Nc4cc(C#N)ncn4)n[nH]3)C2)CC1` [US20250074895, Compound 16] are less than 10 nM and less than 100 nM.
In the same order, the values of `CC1(NC(=O)O[C@@H]2CC[C@H](c3cc(Nc4cc(C#N)ccn4)n[nH]3)C2)CC1` [US20250074895, Compound 2] are less than 10 nM and less than 100 nM.
Regarding `COc1nccc(Nc2cc([C@@H]3CC[C@H](OC(=O)NC4(C)CC4)C3)[nH]n2)n1` [US20250074895, Compound 58], the IC50 is less than 10 nM in assay [1] and less than 100 nM in assay [2].
Regarding `Cc1cncnc1Nc1cc([C@H]2CC[C@@H](OC(=O)NC3(C)CC3)C2)[nH]n1` [US20250074895, Compound 40], the IC50 in assay [1] was 15 nM; in assay [2], greater than 500 nM.
On the same counts, the results for `CC1(NC(=O)O[C@@H]2CC[C@H](c3cc(Nc4cc(C#N)cnn4)n[nH]3)C2)CC1` [US20250074895, Compound 5] are less than 10 nM and 300 nM.
In the same order, the values of `C[C@H](O)c1cnc(Nc2cc([C@H]3CC[C@@H](OC(=O)N4CCC4(C)C)C3)[nH]n2)cn1` [US20250074895, Compound 52] are less than 10 nM and less than 100 nM.
For `CC1(NC(=O)O[C@@H]2CC[C@H](c3cc(Nc4cccnn4)n[nH]3)C2)CC1` [US20250074895, Compound 38], the IC50 in assay [1] is 15 nM; in assay [2] it was greater than 500 nM.
On the same counts, the results for `CNc1nccc(Nc2cc([C@H]3CC[C@@H](OC(=O)NC4(C)CC4)C3)[nH]n2)n1` [US20250074895, Compound 48] are less than 10 nM and 300 nM.
On the same counts, the results for `CC1(NC(=O)O[C@@H]2CC[C@H](c3cc(Nc4cnc(C(F)F)cn4)n[nH]3)C2)CC1` [US20250074895, Compound 36] are less than 10 nM and less than 100 nM.
In the case of `CC1(NC(=O)O[C@@H]2CC[C@H](c3cc(Nc4ccnc(C(F)(F)F)n4)n[nH]3)C2)CC1` [US20250074895, Compound 10], the results for the IC50 in assay [1] and in assay [2] were less than 10 nM and less than 100 nM, respectively.
As for `C[C@H](O)c1cnc(Nc2cc([C@H]3CC[C@@H](OC(=O)NC4(C)CC4)C3)[nH]n2)cn1` [US20250074895, Compound 21], the values for the IC50 in assay [1] and in assay [2] were less than 10 nM and 300 nM, respectively.
As for `COc1cncc(Nc2cc([C@H]3CC[C@@H](OC(=O)NC4(C)CC4)C3)[nH]n2)n1` [US20250074895, Compound 24], the IC50 in assay [1] was less than 10 nM; in assay [2], 300 nM.
With `Cc1nc(C#N)cnc1Nc1cc([C@H]2CC[C@@H](OC(=O)NC3(C)CC3)C2)[nH]n1` [US20250074895, Compound 4], the results for the IC50 in assay [1] and in assay [2] were less than 10 nM and greater than 500 nM, respectively.
In the same order, the values of `CC1(NC(=O)O[C@@H]2CC[C@H](c3cc(Nc4cnc(OC(F)F)cn4)n[nH]3)C2)CC1` [US20250074895, Compound 8] are less than 10 nM and 300 nM.
`COCc1cnc(Nc2cc([C@H]3CC[C@@H](OC(=O)NC4(C)CC4)C3)[nH]n2)cn1` [US20250074895, Compound 37]: the figures for the 50% inhibitory concentration (IC50) in assay [1] and in assay [2] were less than 10 nM and 300 nM, respectively.
In the same order, the values of `CC1(NC(=O)O[C@@H]2CC[C@H](c3cc(Nc4cnc(C(F)(F)F)cn4)n[nH]3)C2)CC1` [US20250074895, Compound 30] are less than 10 nM and 300 nM.
`CC1(NC(=O)O[C@@H]2CC[C@H](c3cc(Nc4cnccn4)n[nH]3)C2)CC1` [US20250074895, Compound 26]: the IC50 is less than 10 nM in assay [1] and 300 nM in assay [2].
In the same order, the values of `CC1(NC(=O)O[C@@H]2CC[C@H](c3cc(Nc4cnc(Cl)cn4)n[nH]3)C2)CC1` [US20250074895, Compound 41] are less than 10 nM and greater than 500 nM.
